Results from patent publication US8106152B2, “Antimicrobial composition” (Dairy Australia Limited, priority 2003, dated 2012).
Like-named read-outs stand apart in the source and are kept apart here. Non-standard residues stand in square brackets, D forms with d. No end group written: not given here. pS = N[C@@H](COP(=O)(O)O)C(=O)O

Tests used:
[1] = test system: Streptococcus mutans Ingbritt; test: Antibacterial planktonic assay (microplate growth assay); format: cell-based; details: for inhibition of S. mutans growth: growth pH 7.20, up to concentrations of 300 μM; for MIC: pH 7.20, tested singly or in combination with a 1:1 ratio of zinc or calcium
Experimental: The oral opportunistic pathogen Streptococcus mutans Ingbritt was used in this study as an indicator strain. The antibacterial assay was conducted in 96 well plates and bacterial growth continuously monitored over 40 h, as previously described (Malkoski et al., 2001). Briefly, bacteria were cultured in Todd Hewitt Broth (36.4 g/l) containing Yeast extract (5.0 g/l) and 100 mM potassium phosphate with a pH of 6.3 or 7.2. The bacterial inocula were prepared by diluting exponentially growing cells in growth medium to give 2.7×10^4 viable cells/ml. In the bacterial growth assays test wells contained κ-casein-A(106-169) or κ-casein-B(106-169) at concentrations between 20 and 120 μM. these peptides were also tested in combination with zinc or calcium ions to give ratios of […]:divalent metal ion of 1:1 to 1:4. Synthetic […]κ-casein-A(138-158) and […]κ-casein-B(138-158) peptides were also tested in this assay. The plates were incubated at 37° C. and growth determined by measuring optical density (OD) at 620 nm using an iEMS microplate reader (Labsystems, OY Research Technologies Division).

[2] = test system: supragingival dental plaque; test: Clinical antiplaque trial, mouthrinse as only oral hygiene, Silness and Loe Plaque Index; format: in vivo, human
Text: Ten subjects were recruited for the double-blind, cross-over study. Subjects were recruited from undergraduate students enrolled at the School of Dental Science, The University of Melbourne. The group consisted of 6 females and 4 males with a mean age of 21 years. Subjects were examined prior to the commencement of the trial and all were gauged to be of good health, having dentitions without unrestored carious lesions or evidence of moderate to severe gingivitis. The subjects had not used any dentifrices containing antimicrobial agents prior to commencement of the trial. Approval was obtained from the Human Research Ethics Committee of the University of Melbourne.
At the commencement of the trial, the subjects were instructed to cease all other forms of daily oral hygiene practices and to solely rely on the use of the allocated mouthrinse solution. Four solutions were tested as mouthrinses in this investigation: Solution A: Deionized water. B: 1% (w/v) Kappacin preparation in deionized water. C: 20 mM ZnCl in deionized water. D: 1% (w/v) Kappacin preparation and 20 mM ZnCl in deionized water. The pH of all solutions was adjusted to 6.9±0.1 using KOH. Subjects were instructed to rinse three times daily: morning, mid-day and evening with 15 ml of solution for a duration of one minute. Each trial session was for four days with a clinical evaluation at the end of the trial. The Silness and Loe Plaque Index (PI) was used to evaluate plaque (Silness and Loe, 1964). The gingival area of each tooth surface (distal, buccal, mesial and lingual) was given a score from 0-3. All teeth excluding third molars were scored at the conclusion of the trial. Following each trial session the subjects resumed their normal oral hygiene habits for a minimum of seven days prior to the next trial. Data were analysed using the nonparametric Wilcoxon rank test.

[3] = test system: S. mutans Ingbritt biofilm; test: Viability of S. mutans cultured as a biofilm in constant depth film fermenter (CDFF); format: cell-based, Streptococcus mutans
Experimental: A constant depth film fermenter (CDFF: Wimmpenny, Cardiff University, UK) was used for biofilm formation. The CDFF consists of a stainless steel disc rotating at a constant speed of 3 rpm containing 15 polytetrafluoroethylene (PTFE) pans each of which contain 5 plugs of 4.5 mm in diameter. The plugs were set to 0.4 mm below the surface of the steel disc. Inbuilt scrapers were used to maintain a constant biofilm depth of 0.4 mm. The scrapers are attached so that the stainless steel disc rotates under them; the scrapers are spring loaded so that they are pressed down against the pans. An anaerobic atmosphere was maintained in the CDFF by continuous gassing with 5% CO2 in N2. The CDFF was housed in a modified CO2 incubator, which was used to maintain a constant culture temperature of 37° C. A S. mutans Ingbritt batch culture in Todd Hewitt (35.4 g/l), Yeast Extract (8 g/L) broth (THYE) in exponential growth phase was used to inoculate the CDFF at a flow rate of 30 ml/h for 5 h. The growth media, THYE containing 0.1% (w/v) sucrose, was then pumped into the CDFF at a constant flow rate of 40 ml/h.
At specified times prior to and after treatment with solutions, plugs were removed from the CDFF, washed to remove planktonic bacteria and viable counts were performed to determine bacterial numbers. To assess the effect on cell viability of various solutions growth media addition to the CDFF was suspended for 10 min and replaced by the solution at a flow rate of 30 ml/h. After 10 min growth media addition was resumed. Solutions tested in the CDFF were: 2 mM Tris-HCl pH6.0; 10 mg/ml Kappacin preparation (see above) in 2 mM Tris-HCl pH 6.0; 10 mg/ml Kappacin preparation (see above) and 20 mM ZnCl2 in 2 mM Tris-HCl pH 6.0; 20 mM ZnCl2 in 2 mM Tris-HCl pH 6.0; 2 mM ZnCl2 in 2 mM Tris-HCl pH 6.0 and 0.05% chlorhexidine digluconate in deionized water.

plaque [4] = details: mouthrinse, Silness and Loe plaque index, Giertsen et al. (1988); cited from earlier work
plaque [5] = details: double blind crossover trial, Addy et al., 1980; cited from earlier work
[6] = test system: Streptococcus mutans Ingbritt; details: S. mutans, pH 6.28; previous study (Malkoski et al., 2001); cited from earlier work

CC[C@H](C)[C@H](NC(=O)[C@@H](NC(=O)[C@H](CCC(=O)O)NC(=O)[C@@H]1CCCN1C(=O)[C@H](COP(=O)(O)O)NC(=O)[C@H](C)NC(=O)[C@H](CCC(=O)O)NC(=O)[C@H](CC(C)C)NC(=O)[C@@H](NC(=O)[C@H](C)NC(=O)[C@@H](NC(=O)[C@@H](NC(=O)[C@H](CO)NC(=O)[C@H](CCC(=O)O)NC(=O)[C@@H](NC(=O)[C@H](C)N)C(C)C)[C@@H](C)O)C(C)C)[C@@H](C)O)C(C)C)C(=O)N[C@@H](CCC(=O)O)C(=O)N[C@@H](CO)C(=O)N1CCC[C@H]1C(=O)N1CCC[C@H]1C(=O)N[C@@H](CCC(=O)O)C(=O)O [Ser(P)^149κ-casein-B(138-158), Ala Val Glu Ser Thr Val Ala Thr Leu Glu Ala Ser(P) Pro Glu Val Ile Glu Ser Pro Pro]
calculated MIC ([1]; S. mutans, growth pH 6.28, microplate growth assay): 44 µM | inhibition of S. mutans growth [1]: no inhibition

[Cl-].[Cl-].[Zn+2] [ZnCl2]
plaque accumulation relative to water or other treatments (Wilcoxon rank test, posterior teeth plaque index scores) ([2]; four days mouthrinse as only oral hygiene): significantly (P<0.05) reduced | decrease in mean whole mouth plaque index scores ([2]; four days, 20 mM zinc chloride mouthrinse): 6% | decrease in the mean Plaque Index Score of posterior teeth compared with water control ([2]; four days, 15 ml rinse three times daily, 1% (w/v) Kappacin and/or 20 mM ZnCl2, pH 6.9): 9% | MIC ([1]; S. mutans): 200 µM | decrease in viable cell counts ([3]; 20 mM ZnCl2 in 2 mM Tris-HCl pH 6.0): 92% | reduction of viable count ([3]; 5 ml of 2 mM ZnCl2 in 2 mM Tris-HCl pH 6.0): ~60% | increase in the tooth surfaces with no plaque compared with a water control (plaque [4]): 9%

[Ca+2].[Cl-].[Cl-] [CaCl2]
MIC ([1]; S. mutans): NI (No inhibition at concentrations up to 1 mM) | effect on S. mutans growth ([1]; alone, at concentrations up to 1 mM): no effect

[H]/N=C(\N/C(=N/[H])NCCCCCCNC(=N)NC(=N)Nc1ccc(Cl)cc1)Nc1ccc(Cl)cc1 [chlorhexidine digluconate]
decrease in S. mutans cell viability [3]: 48% | time after treatment with no significant difference to pre-treatment viability ([3]; 0.05% (w/v) solution): 3.5 h

O=C([O-])CC(O)(CC(=O)[O-])C(=O)[O-].O=C([O-])CC(O)(CC(=O)[O-])C(=O)[O-].[Zn+2].[Zn+2].[Zn+2] [Zinc citrate]
reduction of plaque accumulation (Turesky plaque index) (plaque [5]): 5-8%

AVESTVATLED[pS]PEVIESPP [Ser(P)^149κ-casein-A(138-158)]
MIC [6]: 26 µM | MIC ([1]; S. mutans): NI (No inhibition at concentrations up to 1 mM) | inhibition of S. mutans growth [1]: no inhibition
